Measured values: publication PMC6057649, “Development of NanoLuc-PEST expressing Leishmania mexicana as a new drug discovery tool for axenic- and intramacrophage-based assays” (PLoS Neglected Tropical Diseases, 2018)
pEC50: −log10 of the molar value. Where two headings read alike, the source gives them in different places.

What was measured:
[1] = tested on: NanoLuc-PEST expressing L. mexicana axenic amastigotes; assay: microbe, parasite or virus in culture; format: cell-based; settings: for viability at 2 µM / viability at 10 µM: read-out: Relative Bioluminescence (%)
[2] = tested on: L. mexicana NanoLuc-PEST intramacrophage amastigotes; assay: Bioluminescence-based intramacrophage assay in THP-1 infection model; format: cell-based; settings: Leishmania mexicana, THP-1
[3] = tested on: L. donovani axenic amastigotes; settings: value in brackets ref 54, read-out: Previous EC50, axenic amastigotes; cited from earlier work
[4] = tested on: L. donovani intramacrophage amastigotes; settings: value in brackets ref 54, read-out: Previous EC50, intramacrophage amastigotes; cited from earlier work
HepG2 = settings: read-out: HepG2 CC50; ref MMV Pathogen Box website; cited from earlier work
[5] = Leishmania mexicana, 2 µM compound, 72 hours, relative to DMSO only control, n = 4
[6] = Leishmania mexicana, 10 µM compound, 72 hours, relative to DMSO only control, n = 4
[7] = 2 µM compound, 72 hours, relative to DMSO only control, n = 4
[8] = 10 µM compound, 72 hours, relative to DMSO only control, n = 4

Compound	Relative Bioluminescence (%) [1, 7]	Relative Bioluminescence (%) [1, 8]	other results
C[C@]1(COc2ccc(N3CCC(Oc4ccc(OC(F)(F)F)cc4)CC3)cc2)Cn2cc([N+](=O)[O-])nc2O1 [MMV688262, Delamanid, reference compound]	–	–	viability at 2 µM [1, 5]: -4.37%; viability at 10 µM [1, 6]: -2.71%; pEC50 ([1]; Leishmania mexicana, hit compounds from the axenic amastigote screen, S3 Table, read-out: EC50, Axenic Amastigotes): 7.52; pEC50 ([1]; Leishmania mexicana, read-out: EC50 against amastigotes, Axenic): 7.48; EC90 ([1]; Leishmania mexicana, read-out: EC90 against amastigotes, Axenic): 112 nM; pEC50 ([2]; read-out: EC50 against amastigotes, Intramacrophage): 5.75; EC90 ([2]; read-out: EC90 against amastigotes, Intramacrophage): 25100 nM; pEC50 [3]: 8.30; pEC50 [4]: 6.53 to 7.06; CC50 (HepG2): 72500 nM
CCc1nn(C)c(C(=O)NCc2ccc(Oc3ccc(C)cc3)cc2)c1Cl [MMV688934, Tolfenpyrad]	–	–	viability at 2 µM [1, 5]: 68.5%; viability at 10 µM [1, 6]: 68.1%
Cc1cccc(-c2nc(Nc3ccncn3)c3sccc3n2)n1 [MMV688122]	61.39%	16.72%	–
Cc1cc2nc(NC(=O)C(C)(C)C)nc(Cl)c2n1Cc1ccc(Cl)cc1 [MMV688704]	83.23%	53.57%	–
Cc1ccc(Oc2ccc(NC(=O)CNc3ccccc3N3CCCC3=O)cc2)cc1 [MMV020512]	56.59%	56.11%	–
N=C(N)Nc1ccc(-c2ccc(-c3ccc(N=C(N)N)c(Cl)c3)o2)cc1Cl [MMV688271]	98.92%	56.10%	–
CC(C)(C)n1nc(Cc2cccc3ccccc23)c2c(N)ncnc21 [MMV676599]	80.19%	31.83%	–
CN1CCN(S(=O)(=O)c2ccc(-c3ccc4c(Nc5ncc(Cl)cn5)ccnc4c3)cc2)CC1 [MMV688283]	58.40%	101.72%	–
c1ccc(Oc2ccc(-c3cc(N4CCOCC4)n[nH]3)cc2)cc1 [MMV045105]	73.02%	44.11%	–
Nc1ccc(C(=O)Nc2ccc(-c3nc4ccccc4o3)cc2)cc1 [MMV007920]	112.76%	88.96%	–
O=C(NC1CC1)c1ccc(N2CCC(Cc3ccccc3)CC2)nc1 [MMV024397]	92.24%	86.39%	–
COC(=O)C1=C(C)NC(C)=C(C(=O)OC(C)C)C1c1cccc2nonc12 (stereo not shown) [MMV001493, Isradipine, reference compound]	–	–	viability at 2 µM [1, 5]: 130%; viability at 10 µM [1, 6]: 89.6%
CCOc1ccccc1NC(C)C(=O)Nc1cc(C(F)(F)F)ccc1N1CCOCC1 (stereo not shown) [MMV407834]	70.36%	63.07%	–
Nc1ncnc2n[nH]c(Cc3cccc4ccccc34)c12 [MMV688469]	103.98%	53.28%	–
Cc1ccc(-c2nc(CN(Cc3ccccn3)C(C)C)cs2)o1 [MMV1088520]	70.72%	-3.27%	–
COc1cc(NC(C)CCCN)c2ncccc2c1 (stereo not shown) [MMV000023, Primaquine, reference compound]	–	–	viability at 2 µM [1, 5]: 55%; viability at 10 µM [1, 6]: 76.8%
N=C(N)c1ccc(OCCCCCOc2ccc(C(=N)N)cc2)cc1 [MMV000062, Pentamidine, reference compound]	–	–	viability at 2 µM [1, 5]: 72.2%; viability at 10 µM [1, 6]: 96.8%
CCOc1ccc(-c2nc(CNCCc3ccc(F)cc3)cs2)cc1 [MMV688938]	63.80%	76.80%	–
Levofloxacin (-)-ofloxacin [MMV687798, reference compound]	83.03%	74.50%	–
CC(=O)Nc1ccc(NC(=O)c2cc(-c3cc(Cl)ccc3O)n[nH]2)cc1 [MMV676380]	84.54%	97.79%	–
CC(Oc1cccc(Cl)c1)C(=O)Nc1ccc2oc(-c3ccncc3)nc2c1 (stereo not shown) [MMV688472]	83.48%	74.96%	–
Cc1cc(C)n(-c2ccc(NC(=O)C3CCN(Cc4cnc(C)s4)CC3)cc2)n1 [MMV007625]	85.10%	76.47%	–
COC(=O)c1ccc(F)cc1NS(=O)(=O)c1cccc(-c2cnn(Cc3ccccc3)c2)c1 [MMV688350]	101.75%	91.24%	–
Cc1cc(Nc2ccc(C(F)(F)F)cc2)n2ccnc2n1 [MMV011229]	102.18%	84.66%	–
CC(C)(C)c1ccc(N[C@@H]2CCCC[C@H]2NC(=O)c2ccco2)cc1 [MMV675969]	104.76%	77.56%	–
Cc1cccc(NC(=O)c2cc(S(=O)(=O)N(C)c3ccc(F)cc3)ccc2Cl)n1 [MMV676528]	77.13%	57.74%	–
COc1ccc(Cn2cnc3c(-c4ccco4)nc(Cl)nc32)cc1 [MMV687170]	107.56%	104.36%	–

Compound	Relative Bioluminescence (%) [1, 7]	Relative Bioluminescence (%) [1, 8]	other results
CN1CCN(c2nccc3[nH]c(-c4cccc(F)c4)cc23)CC1 [MMV393144]	92.24%	81.97%	–
CNC(=O)CNc1nc(-c2ccccn2)nc2scc(-c3ccccc3)c12 [MMV1029203]	83.99%	52.70%	–
CS(=O)(=O)c1cccc(-c2cnc3[nH]cc(-c4ccc(CCC(=O)O)cc4)c3c2)c1 [MMV026020]	94.58%	94.82%	–
Cc1ccccc1CN1CCC(O)(c2ccc(Cl)c(C(F)(F)F)c2)CC1 [MMV688846]	63.77%	60.58%	–
Nc1ncc(-c2ccc(C(F)(F)F)nc2)cc1-c1ccc(C(F)(F)F)nc1 [MMV668727]	68.46%	78.89%	–
CC(C)(C)C(O)C(Oc1ccc(-c2ccccc2)cc1)n1cncn1 (stereo not shown) [MMV688942, Bitertanol]	–	–	viability at 2 µM [1, 5]: 21%; viability at 10 µM [1, 6]: 15.4%
CCOc1ccc(-c2nc(NC(=O)CS(=O)(=O)c3ccccc3)sc2C)cc1 [MMV007638]	57.66%	52.58%	–
COc1ccc(-c2cnc3ccc(NCc4ccc(S(N)(=O)=O)cc4)nn23)cn1 [MMV010545]	70.73%	68.48%	–
O=C(C1CCCCC1)N1CC(=O)N2CCc3ccccc3C2C1 (stereo not shown) [MMV002529, Praziquantel, reference compound]	–	–	viability at 2 µM [1, 5]: 64.8%; viability at 10 µM [1, 6]: 93.8%
O=C(Nc1ccc(N2CCNCC2)nc1)c1oc(-c2ccccc2)nc1C(F)(F)F [MMV024937]	68.74%	69.28%	–
Cn1c(=O)c2c(S(C)(=O)=O)snc2n(C)c1=O [MMV687251]	-4.37%	-0.24%	pEC50 ([1]; hit compounds from the axenic amastigote screen, S3 Table, read-out: EC50, Axenic Amastigotes): 6.32
OC(c1cc(C(F)(F)F)nc2c(C(F)(F)F)cccc12)C1CCCCN1 (stereo not shown) [MMV000014, Mefloquine, reference compound]	–	–	viability at 2 µM [1, 5]: 93.4%; viability at 10 µM [1, 6]: 109%
CC(=O)Nc1ccc(-c2noc(CC3CCCN(Cc4cccc(F)c4C)C3)n2)cc1 (stereo not shown) [MMV689061]	77.60%	95.91%	–
CC1CS(=O)(=O)CCN1/N=C/c1ccc([N+](=O)[O-])o1 (stereo not shown) [MMV001499, Nifurtimox, reference compound]	–	–	viability at 2 µM ([1]; Leishmania mexicana, 72 h): 7.65%; viability at 10 µM ([1]; Leishmania mexicana, 72 h): -2.17%
c1ccc(Oc2ccc(-c3cc(C4CCOCC4)[nH]n3)cc2)cc1 [MMV687762]	41.49%	31.40%	–
CN1CCN(c2cc(-c3ccc(F)cc3)nc(-c3ccncc3)n2)CC1 [MMV688888]	78.28%	89.99%	–
CNC(=O)C1Cc2c([nH]c3cc(Cl)ccc23)C2(CCN(CCc3ccccc3)CC2)N1 (stereo not shown) [MMV031011]	110.57%	84.55%	–
c1cc(C2=NCCN2)cc(-c2cc(-c3ccc(C4=NCCN4)cc3)no2)c1 [MMV688361]	96.04%	78.94%	–
Cc1ccc(NC(=O)c2cc(S(=O)(=O)NC(C)(C)C)ccc2C)nc1 [MMV020289]	103.50%	71.21%	–
CCOC(=O)c1cc(-c2csc(Nc3c(C)cc(C)cc3C)n2)on1 [MMV676461]	79.84%	54.88%	–
CNCCC(Oc1ccc(C(F)(F)F)cc1)c1ccccc1 (stereo not shown) [MMV001561, Fluoxetine, reference compound]	–	–	viability at 2 µM [1, 5]: 90.4%; viability at 10 µM [1, 6]: 52.4%
Cc1ccc(NC(=O)CC2COc3ccccc3O2)cc1Cl (stereo not shown) [MMV676431]	104.86%	65.31%	–
COc1cc(CN2CCC3(C=Cc4ccccc43)CC2)cc2c1OCO2 [MMV688941]	78.23%	74.74%	–
CN1CCN(S(=O)(=O)c2ccc(-c3ccc4c(Nc5ccc6n[nH]nc6c5)ccnc4c3)cc2)CC1 [MMV687246]	103.95%	82.04%	–
COc1ccc(C2=NCCN2)cc1-c1cn(-c2cccc(C3=NCCN3)c2)nn1 [MMV688547]	85.85%	128.07%	–
COc1ccc(Nc2ccccc2NC(=O)c2ccc(=O)[nH]c2)cc1 [MMV676554]	97.83%	103.74%	–
